# Patent US4332794A, “6"-Deoxydibekacin, 4",6"-dideoxydibekacin and 1-N-aminoacyl derivatives thereof, and the production of these new compounds” (Zaidan Hojin Biseibutsu Kagaku Kenkyu Kai, priority 1979, dated 1982)
# Read-outs that look alike come from different tables or passages of the source.
# Key:
# Proteus rettgeri GN466 = assay: MIC, serial dilution on nutrient agar; type: cell-based; settings: Providencia rettgeri
# Escherichia coli JR255 = assay: microbe, parasite or virus in culture; type: cell-based; settings: JR255, 18 h
# [1] = tested on: Mycobacterium smegmatis ATCC 607; assay: MIC, serial dilution on nutrient agar; type: cell-based; settings: Mycolicibacterium smegmatis
# [2] = tested on: Staphylococcus aureus APO1; assay: MIC, serial dilution on nutrient agar; type: cell-based
# [3] = tested on: Pseudomonas aeruginosa 99; assay: MIC, serial dilution on nutrient agar; type: cell-based
# [4] = tested on: Pseudomonas aeruginosa TI-13; assay: MIC, serial dilution on nutrient agar; type: cell-based; settings: TI13, 18 h
# Providencia Pv 16 = assay: MIC, serial dilution on nutrient agar; type: cell-based
# [5] = tested on: Escherichia coli K-12 LA 290 R56; assay: microbe, parasite or virus in culture; type: cell-based; settings: K12LA290R56, 18 h
# [6] = tested on: Escherichia coli K-12 1410 R81; assay: MIC, serial dilution on nutrient agar; type: cell-based; settings: K121410R81, 18 h
# Escherichia coli K-12 = assay: MIC, serial dilution on nutrient agar; type: cell-based
# [7] = tested on: Pseudomonas aeruginosa ROS134/PU21; assay: microbe, parasite or virus in culture; type: cell-based; settings: ROS134/PU21, 18 h
# Proteus rettgeri GN311 = assay: MIC, serial dilution on nutrient agar; type: cell-based; settings: Providencia rettgeri, GN311, 18 h
# [8] = tested on: Klebsiella pneumoniae 22 #3038; assay: MIC, serial dilution on nutrient agar; type: cell-based
# [9] = tested on: Escherichia coli K-12 LA 290 R64; assay: MIC, serial dilution on nutrient agar; type: cell-based; settings: K12LA290R64, 18 h
# Escherichia coli K-12 R5 = assay: microbe, parasite or virus in culture; type: cell-based; settings: K12R5, 18 h
# [10] = tested on: Salmonella enteritidis 1891; assay: MIC, serial dilution on nutrient agar; type: cell-based; settings: Salmonella enterica
# [11] = tested on: Pseudomonas maltophilia GN907; assay: MIC, serial dilution on nutrient agar; type: cell-based; settings: Stenotrophomonas maltophilia, 37° C., 18 hours
# Experimental: (§1) The minimum inhibitory concentrations (mcg/ml) of 6"-deoxydibekacin (abbreviated as 6"-DDKB), 4",6"-dideoxydibekacin (abbreviated as 4",6"-DDKB), 1-N-(L-4-amino-2-hydroxybutyryl)-6"-deoxydibekacin (abbreviated as AHB-6"-DDKB) and 1-N-(L-4-amino-2-hydroxybutyryl)-4",6"-dideoxydibekacin (abbreviated as AHB-4",6"-DDKB) of this invention against various microorganisms were determined according to serial dilution method on a nutrient agar medium at 37° C., the estimation being made after 18 hours incubation. For comparison purpose, the minimum inhibitory concentrations of dibekacin (abbreviated as DKB) were also determined in the same manner as stated above.
# [12] = tested on: Escherichia coli K-12 C 600R/35; assay: MIC, serial dilution on nutrient agar; type: cell-based; settings: K12C600R/35, 37° C., 18 hours
# Experimental: as §1
# [13] = tested on: Shigella flexneri 4b JS11811; assay: MIC, serial dilution on nutrient agar; type: cell-based; settings: 4BJS11811, 37° C., 18 hours
# Experimental: as §1
# [14] = tested on: Escherichia coli K-12 ML 1630; assay: MIC, serial dilution on nutrient agar; type: cell-based; settings: K12ML1630, 37° C., 18 hours
# Experimental: as §1
# [15] = tested on: Escherichia coli K-12 ML 1629; assay: MIC, serial dilution on nutrient agar; type: cell-based; settings: K12ML1629, 37° C., 18 hours
# Experimental: as §1
# Shigella sonnei JS11746 = assay: MIC, serial dilution on nutrient agar; type: cell-based; settings: 37° C., 18 hours
# Experimental: as §1
# [16] = tested on: Klebsiella pneumoniae PCI 602; assay: MIC, serial dilution on nutrient agar; type: cell-based; settings: PCI602, 37° C., 18 hours
# Experimental: as §1
# [17] = tested on: Staphylococcus aureus 209P; assay: MIC, serial dilution on nutrient agar; type: cell-based; settings: 37° C., 18 hours
# Experimental: as §1
# Serratia SOU = assay: MIC, serial dilution on nutrient agar; type: cell-based; settings: 37° C., 18 hours
# Experimental: as §1
# [18] = tested on: Escherichia coli K-12 J5B 11-2; assay: MIC, serial dilution on nutrient agar; type: cell-based; settings: K12J5B112, 37° C., 18 hours
# Experimental: as §1
# Serratia marcescens = assay: MIC, serial dilution on nutrient agar; type: cell-based; settings: 37° C., 18 hours
# Experimental: as §1
# [19] = tested on: Pseudomonas aeruginosa GN315; assay: MIC, serial dilution on nutrient agar; type: cell-based; settings: 37° C., 18 hours
# Experimental: as §1
# Serratia 4 = assay: MIC, serial dilution on nutrient agar; type: cell-based; settings: 37° C., 18 hours
# Experimental: as §1
# Providencia 2991 = assay: MIC, serial dilution on nutrient agar; type: cell-based; settings: 37° C., 18 hours
# Experimental: as §1
# Proteus vulgaris OX19 = assay: MIC, serial dilution on nutrient agar; type: cell-based; settings: 37° C., 18 hours
# Experimental: as §1
# [20] = tested on: Pseudomonas aeruginosa 21-75; assay: MIC, serial dilution on nutrient agar; type: cell-based; settings: 2175, 37° C., 18 hours
# Experimental: as §1
# Escherichia coli NIHJ = assay: MIC, serial dilution on nutrient agar; type: cell-based
# [21] = tested on: Bacillus cereus ATCC 10702; assay: MIC, serial dilution on nutrient agar; type: cell-based
# [22] = tested on: Escherichia coli JR66/W677; assay: MIC, serial dilution on nutrient agar; type: cell-based
# [23] = tested on: Pseudomonas aeruginosa H9; assay: MIC, serial dilution on nutrient agar; type: cell-based; settings: H9, 18 h
# Salmonella typhi F63 = assay: MIC, serial dilution on nutrient agar; type: cell-based; settings: Salmonella enterica, 18 h
# oto-toxicity = settings: compounds of this invention
# intravenous LD50 in mice = settings: mouse, in vivo, estimated
# [24] = GN466, nutrient agar, 37° C., 18 hours, read-out: MIC
# [25] = Pseudomonas aeruginosa, 99, 18 h
# [26] = nutrient agar, 37° C., 18 hours, read-out: MIC
# [27] = ATCC10702, nutrient agar, 37° C., 18 hours, read-out: MIC
SMILES,MIC (Escherichia coli JR255),MIC [4],MIC [5],MIC [6],MIC [7],MIC (Proteus rettgeri GN311),MIC [9],MIC (Escherichia coli K-12 R5),MIC [11],MIC [12],MIC [13],MIC [14],MIC [15],MIC (Shigella sonnei JS11746),MIC [16],MIC [17],MIC (Serratia SOU),MIC [18],MIC (Serratia marcescens),MIC [19],further results
"NC[C@@H]1CC[C@@H](N)[C@@H](O[C@H]2[C@H](O)[C@@H](O[C@H]3O[C@H](CO)[C@@H](O)[C@H](N)[C@H]3O)[C@H](N)C[C@@H]2N)O1 [DKB, 3',4'-dideoxykanamycin B, reference compound]",> 100 µg/mL,6.25 µg/mL,25 µg/mL,1.56 µg/mL,> 100 µg/mL,6.25 µg/mL,25 µg/mL,> 100 µg/mL,> 100 µg/mL,1.56 µg/mL,3.13 µg/mL,3.13 µg/mL,3.13 µg/mL,6.25 µg/mL,0.78 µg/mL,0.78 µg/mL,> 100 µg/mL,3.13 µg/mL,100 µg/mL,> 100 µg/mL,"MIC (Proteus rettgeri GN466; [24]): 1.56 µg/mL; MIC ([1]; ATCC607, nutrient agar, 37° C., 18 hours, read-out: MIC): 1.56 µg/mL; MIC ([2]; APO1, nutrient agar, 37° C., 18 hours, read-out: MIC): 1.56 µg/mL; MIC [3, 25]: 50 µg/mL; MIC (Providencia Pv 16; PV16, 18 h): > 100 µg/mL; MIC (Escherichia coli K-12; K12, nutrient agar, 37° C., 18 hours, read-out: MIC): 1.56 µg/mL; MIC ([8]; 18 h): 100 µg/mL; MIC ([10]; 18 h): 3.13 µg/mL; MIC (Serratia 4): 100 µg/mL; MIC (Providencia 2991): > 100 µg/mL; MIC (Proteus vulgaris OX19): 0.78 µg/mL; MIC [20]: > 100 µg/mL; MIC (Escherichia coli NIHJ; [26]): 1.56 µg/mL; MIC ([21]; ATCC10702, 18 h): 3.13 µg/mL; MIC ([22]; JR66/W677, 18 h): 100 µg/mL; MIC [23]: 6.25 µg/mL; MIC (Salmonella typhi F63): 0.78 µg/mL"
"C[C@@H]1C[C@H](N)[C@@H](O)[C@@H](O[C@@H]2[C@@H](O)[C@H](O[C@H]3O[C@H](CN)CC[C@H]3N)[C@@H](N)C[C@H]2N)O1 [4"",6""-DDKB, 4"",6""-dideoxydibekacin]",100 µg/mL,100 µg/mL,50 µg/mL,1.56 µg/mL,> 100 µg/mL,3.13 µg/mL,25 µg/mL,> 100 µg/mL,> 100 µg/mL,50 µg/mL,3.13 µg/mL,3.13 µg/mL,3.13 µg/mL,3.13 µg/mL,0.78 µg/mL,0.39 µg/mL,> 100 µg/mL,3.13 µg/mL,100 µg/mL,> 100 µg/mL,"MIC (Proteus rettgeri GN466; GN466, 18 h): 1.56 µg/mL; MIC ([1]; ATCC607, 18 h): 1.56 µg/mL; MIC ([2]; APO1, 18 h): 3.13 µg/mL; MIC [3, 25]: > 100 µg/mL; MIC (Providencia Pv 16; PV16, 18 h): > 100 µg/mL; MIC (Escherichia coli K-12; K12, 18 h): 1.56 µg/mL; MIC ([8]; 18 h): 100 µg/mL; oto-toxicity (oto-toxicity): low oto-toxicity; LD50 (intravenous LD50 in mice): > 60 mg/kg; MIC [10, 26]: 6.25 µg/mL; MIC (Serratia 4): 100 µg/mL; MIC (Providencia 2991): > 100 µg/mL; MIC (Proteus vulgaris OX19): 0.78 µg/mL; MIC [20]: > 100 µg/mL; MIC (Escherichia coli NIHJ; 18 h): 1.56 µg/mL; MIC [21, 27]: 6.25 µg/mL; MIC ([22]; JR66/W677, 18 h): 100 µg/mL; MIC [23]: 100 µg/mL; MIC (Salmonella typhi F63): 0.78 µg/mL"
"C[C@H]1O[C@H](O[C@@H]2[C@@H](O)[C@H](O[C@H]3O[C@H](CN)CC[C@H]3N)[C@@H](N)C[C@H]2NC(=O)[C@@H](O)CCN)[C@H](O)[C@@H](N)[C@@H]1O [AHB-6""-DDKB, 1-N-(L-4-amino-2-hydroxybutyryl)-6""-deoxydibekacin]",1.56 µg/mL,6.25 µg/mL,1.56 µg/mL,1.56 µg/mL,> 100 µg/mL,50 µg/mL,1.56 µg/mL,50 µg/mL,> 100 µg/mL,1.56 µg/mL,6.25 µg/mL,3.13 µg/mL,1.56 µg/mL,6.25 µg/mL,1.56 µg/mL,1.56 µg/mL,100 µg/mL,1.56 µg/mL,50 µg/mL,50 µg/mL,"MIC (Proteus rettgeri GN466; [24]): 12.5 µg/mL; MIC ([1]; ATCC607, 18 h): 0.39 µg/mL; MIC ([2]; APO1, 18 h): 1.56 µg/mL; MIC ([3]; Pseudomonas aeruginosa, 99, nutrient agar, 37° C., 18 hours, read-out: MIC): 12.5 µg/mL; MIC (Providencia Pv 16; PV16, nutrient agar, 37° C., 18 hours, read-out: MIC): 25 µg/mL; MIC (Escherichia coli K-12; K12, 18 h): 1.56 µg/mL; MIC [8, 26]: 3.13 µg/mL; oto-toxicity (oto-toxicity): low oto-toxicity; LD50 (intravenous LD50 in mice): > 80 mg/kg; MIC [10, 26]: 3.13 µg/mL; MIC (Serratia 4): 6.25 µg/mL; MIC (Providencia 2991): 100 µg/mL; MIC (Proteus vulgaris OX19): 0.78 µg/mL; MIC [20]: 100 µg/mL; MIC (Escherichia coli NIHJ; 18 h): 1.56 µg/mL; MIC [21, 27]: 3.13 µg/mL; MIC ([22]; JR66/W677, nutrient agar, 37° C., 18 hours, read-out: MIC): 3.13 µg/mL; MIC [23]: 6.25 µg/mL; MIC (Salmonella typhi F63): 0.39 µg/mL"
